Assay results reported in PMC8480901 (PLoS ONE, 2021).
“And” between values parts separate entries of the source, which are not always exact repeats. Equal entries are not always repeated.

System: human PBMCs
Assay: LPS-induced cytokine and chemokine levels in human PBMC supernatant (Luminex, ELISA)
Format: cell-based
Conditions: for CCl2, % reduction / CXCL1 % reduction / CXCL2 % reduction / MMP9 % reduction / CCl2, Mean / CXCL1, Mean / CXCL2, Mean / MMP9, Mean / CCl2, individual value / CXCL1, individual value / CXCL2, individual value / MMP9, individual value: LPS-stimulated PBMC supernatant; for CCl2, Mean / CXCL1, Mean / CXCL2, Mean / MMP9, Mean: sample size 2; for CCl2, individual value / CXCL1, individual value / CXCL2, individual value / MMP9, individual value: single replicate
[1] = LPS-stimulated human PBMC supernatant, 0.03 µM

SMILES: C=C[C@]1(C)C[C@@H](OC(=O)CS[C@@H]2CC[C@@H](N)C[C@H]2O)[C@]2(C)[C@H](C)CC[C@]3(CCC(=O)[C@H]32)[C@@H](C)[C@@H]1O [Lefamulin]
- CCl2, % reduction (0.03 µM): -3.52%
- CXCL1 % reduction (0.03 µM): -11%
- CXCL2 % reduction (0.03 µM): -3%
- MMP9 % reduction (0.03 µM): -7%
- CCl2, Mean (0.03 µM): 1309 pg/mL
- CXCL1, Mean (0.03 µM): 6607 pg/mL
- CXCL2, Mean (0.03 µM): 5213 pg/mL
- MMP9, Mean (0.03 µM): 3113 pg/mL
- CCl2, individual value (0.03 µM): 1274 pg/mL and 1344 pg/mL
- CXCL1, individual value (0.03 µM): 6599 pg/mL and 6616 pg/mL
- CXCL2, individual value (0.03 µM): 5117 pg/mL and 5308 pg/mL
- MMP9, individual value (0.03 µM): 3135 pg/mL and 3092 pg/mL
- CCl2, % reduction (0.1 µM): -1%
- CXCL1 % reduction (0.1 µM): -3%
- CXCL2 % reduction (0.1 µM): 3%
- MMP9 % reduction (0.1 µM): 6%
- CCl2, Mean (0.1 µM): 1279 pg/mL
- CXCL1, Mean (0.1 µM): 6126 pg/mL
- CXCL2, Mean (0.1 µM): 4904 pg/mL
- MMP9, Mean (0.1 µM): 2899 pg/mL
- CCl2, individual value (0.1 µM): 1178 pg/mL and 1379 pg/mL
- CXCL1, individual value (0.1 µM): 5750 pg/mL and 6502 pg/mL
- CXCL2, individual value (0.1 µM): 4854 pg/mL and 4955 pg/mL
- MMP9, individual value (0.1 µM): 2852 pg/mL and 2946 pg/mL
- CCl2, % reduction (0.3 µM): -8%
- CXCL1 % reduction (0.3 µM): -11%
- CXCL2 % reduction (0.3 µM): -1.83%
- MMP9 % reduction (0.3 µM): -13%
- CCl2, Mean (0.3 µM): 1360 pg/mL
- CXCL1, Mean (0.3 µM): 6577 pg/mL
- CXCL2, Mean (0.3 µM): 5150 pg/mL
- MMP9, Mean (0.3 µM): 3213 pg/mL
- CCl2, individual value (0.3 µM): 1440 pg/mL and 1281 pg/mL
- CXCL1, individual value (0.3 µM): 6950 pg/mL and 6204 pg/mL
- CXCL2, individual value (0.3 µM): 5157 pg/mL and 5144 pg/mL
- MMP9, individual value (0.3 µM): 3328 pg/mL and 3097 pg/mL
- CCl2, % reduction (1 µM): -4.42%
- CXCL1 % reduction (1 µM): -4.56%
- CXCL2 % reduction (1 µM): 2.67%
- MMP9 % reduction (1 µM): -10%
- CCl2, Mean (1 µM): 1320 pg/mL
- CXCL1, Mean (1 µM): 6222 pg/mL
- CXCL2, Mean (1 µM): 4923 pg/mL
- MMP9, Mean (1 µM): 3154 pg/mL
- CCl2, individual value (1 µM): 1176 pg/mL and 1464 pg/mL
- CXCL1, individual value (1 µM): 5695 pg/mL and 6750 pg/mL
- CXCL2, individual value (1 µM): 4726 pg/mL and 5120 pg/mL
- MMP9, individual value (1 µM): 3230 pg/mL and 3077 pg/mL
- CCl2, % reduction (3 µM): -29%
- CXCL1 % reduction (3 µM): -12%
- CXCL2 % reduction (3 µM): -3.75%
- MMP9 % reduction (3 µM): -3%
- CCl2, Mean (3 µM): 1626 pg/mL
- CXCL1, Mean (3 µM): 6685 pg/mL
- CXCL2, Mean (3 µM): 5247 pg/mL
- MMP9, Mean (3 µM): 3044 pg/mL
- CCl2, individual value (3 µM): 1606 pg/mL and 1647 pg/mL
- CXCL1, individual value (3 µM): 6614 pg/mL and 6757 pg/mL
- CXCL2, individual value (3 µM): 5389 pg/mL and 5104 pg/mL
- MMP9, individual value (3 µM): 3098 pg/mL and 2991 pg/mL
- CCl2, % reduction (10 µM): -40%
- CXCL1 % reduction (10 µM): -16%
- CXCL2 % reduction (10 µM): 2.3%
- MMP9 % reduction (10 µM): 13%
- CCl2, Mean (10 µM): 1763 pg/mL
- CXCL1, Mean (10 µM): 6870 pg/mL
- CXCL2, Mean (10 µM): 4942 pg/mL
- MMP9, Mean (10 µM): 2781 pg/mL
- CCl2, individual value (10 µM): 1714 pg/mL and 1811 pg/mL
- CXCL1, individual value (10 µM): 6794 pg/mL and 6946 pg/mL
- CXCL2, individual value (10 µM): 4972 pg/mL and 4912 pg/mL
- MMP9, individual value (10 µM): 2867 pg/mL and 2696 pg/mL
- CCl2, % reduction (30 µM): 8%
- CXCL1 % reduction (30 µM): 7%
- CXCL2 % reduction (30 µM): 6%
- MMP9 % reduction (30 µM): 27%
- CCl2, Mean (30 µM): 1163 pg/mL
- CXCL1, Mean (30 µM): 5540 pg/mL
- CXCL2, Mean (30 µM): 4765 pg/mL
- MMP9, Mean (30 µM): 2563 pg/mL
- CCl2, individual value (30 µM): 1184 pg/mL and 1143 pg/mL
- CXCL1, individual value (30 µM): 5594 pg/mL and 5487 pg/mL
- CXCL2, individual value (30 µM): 4928 pg/mL and 4603 pg/mL
- MMP9, individual value (30 µM): 2485 pg/mL and 2640 pg/mL
- CCl2, % reduction (100 µM): 92%
- CXCL1 % reduction (100 µM): 73%
- CXCL2 % reduction (100 µM): 2.31%
- MMP9 % reduction (100 µM): 11%
- CCl2, Mean (100 µM): 141 pg/mL
- CXCL1, Mean (100 µM): 1638 pg/mL
- CXCL2, Mean (100 µM): 4941 pg/mL
- MMP9, Mean (100 µM): 2809 pg/mL
- CCl2, individual value (100 µM): 141 pg/mL
- CXCL1, individual value (100 µM): 1562 pg/mL and 1715 pg/mL
- CXCL2, individual value (100 µM): 4788 pg/mL and 5094 pg/mL
- MMP9, individual value (100 µM): 2812 pg/mL and 2806 pg/mL
- GM-CSF % reduction [1]: -7%
- GM-CSF [pg/mL], Mean [1]: 705 pg/mL
- GM-CSF [pg/mL], individual value [1]: 721 pg/mL and 689 pg/mL
- IL-1β % reduction [1]: -4.62%
- IL-1β [pg/mL], Mean [1]: 13375 pg/mL
- IL-1β [pg/mL], individual value [1]: 13502 pg/mL and 13249 pg/mL
- IL-6 % reduction [1]: 9%
- IL-6 [pg/mL], Mean [1]: 31710 pg/mL
- IL-6 [pg/mL], individual value [1]: 32710 pg/mL and 30710 pg/mL
- IL-8 % reduction [1]: -7%
- IL-8 [pg/mL], Mean [1]: 3113 pg/mL
- IL-8 [pg/mL], individual value [1]: 3135 pg/mL and 3092 pg/mL
